Among the test systems are COLO 205 colon; EKVX NSCLC; HS 578T breast; LOX IMVI melanoma; NCI-H460 lung; NCI-H522 lung; OVCAR-3 ovarian; U251 CNS; HCC-2998 colon; MALME-3M melanoma.
Holding throughout (experiment): inhibition of tumour cell growth, NCI panel, 48 h

Values joined by “and” are separate entries in the source; they are usually repeats but may differ in a detail not shown here. Equal entries are not always repeated.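 Following 48 hours of exposure in 96-well plates, responses at five concentrations were used to interpolate endpoints linearly. Here, GI50 denotes the concentration required for 50% inhibition of growth. TGI is the concentration that stops growth completely.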

With `N#CC1=C(N)NC(=S)NC1c1ccc(-c2ccc(-c3nc4ccccc4s3)cc2)o1` (centres undefined), the GI50 is 17.4 µM with COLO 205 colon; over 50 µM with EKVX NSCLC; over 50 µM in the assay on HS 578T breast; 10.6 µM in the assay with LOX IMVI melanoma; 10.4 µM with NCI-H460 lung; 40.3 µM in the assay on NCI-H522 lung. Further, the values for the GI50 with OVCAR-3 ovarian and in the assay on U251 CNS were over 50 µM and 11.8 µM, respectively. Besides, the TGI with COLO 205 colon is over 50 µM; in the assay with EKVX NSCLC it was over 50 µM; in the assay on HS 578T breast it was over 50 µM; in the assay on LOX IMVI melanoma, 22.8 µM; in the assay with NCI-H460 lung, 25.2 µM; in the assay with NCI-H522 lung, over 50 µM. Besides, the TGI is over 50 µM in the assay with OVCAR-3 ovarian and 32.2 µM in the assay with U251 CNS.
Regarding `C=CC[n+]1c(/C=C2\Sc3ccccc3N2C)sc(-c2ccccc2)c1-c1ccccc1`, the GI50 in the assay with COLO 205 colon was 0.249 µM; in the assay with EKVX NSCLC, 0.478 µM; in the assay with HCC-2998 colon it was 0.401 µM; in the assay with HS 578T breast, 0.374 µM; in the assay on LOX IMVI melanoma it was 0.34 µM; in the assay with MALME-3M melanoma it was 0.253 µM. The GI50 was 0.284 µM in the assay with NCI-H460 lung, 0.22 µM in the assay on NCI-H522 lung and 0.315 µM in the assay with U251 CNS. Moreover, the TGI in the assay with COLO 205 colon turned out to be 0.658 µM; in the assay with EKVX NSCLC, 12.9 µM; in the assay on HCC-2998 colon, 15.7 µM; with HS 578T breast, 19.4 µM; in the assay with LOX IMVI melanoma, 1.54 µM; in the assay on MALME-3M melanoma, 0.672 µM. Also, the TGI in the assay with NCI-H460 lung is 11.4 µM; with NCI-H522 lung, 0.76 µM; in the assay on U251 CNS it was 12.4 µM.
On to `O=C1C=Cc2cc3ccccc3c3cccc1c23`, for which the GI50 is 8.41 µM in the assay on COLO 205 colon; 2.55 µM in the assay on EKVX NSCLC; 0.413 µM in the assay with HCC-2998 colon; 4.09 µM with HS 578T breast; 2.87 µM in the assay with LOX IMVI melanoma; 3.37 µM in the assay on NCI-H460 lung. The GI50 is 8.6 µM in the assay on NCI-H522 lung, 3.9 µM with OVCAR-3 ovarian and 4.38 µM with U251 CNS. In addition, the TGI was over 100 µM in the assay with COLO 205 colon; 8.92 µM in the assay on EKVX NSCLC; 3.18 µM in the assay on HCC-2998 colon; 11.7 µM in the assay on HS 578T breast; 12.2 µM with LOX IMVI melanoma; 11.6 µM with NCI-H460 lung. Further, the figures for the TGI in the assay on NCI-H522 lung, with OVCAR-3 ovarian and in the assay with U251 CNS were over 100 µM, 19 µM and 43.1 µM, respectively.
As for `Nc1ncnc2c1ncn2C1OC(CO)C(O)C1O` (centres undefined), the GI50 in the assay on COLO 205 colon is > 100 µM and > 450 µM and 60.3 µM; in the assay on EKVX NSCLC it was > 100 µM and 48.3 µM and 17 µM; in the assay with HCC-2998 colon, 1.61 µM; in the assay with HS 578T breast, 16.2 µM; in the assay on LOX IMVI melanoma, 5.73 µM; with MALME-3M melanoma it was 51.3 µM. Also, the GI50 in the assay on NCI-H460 lung is 4.23 µM; with U251 CNS it was > 100 µM and 273 µM and 30.6 µM. The TGI is over 450 µM in the assay with COLO 205 colon; > 100 µM and 152 µM and > 84.3 µM in the assay with EKVX NSCLC; 54.4 µM with HS 578T breast; over 450 µM in the assay on LOX IMVI melanoma; over 422 µM with MALME-3M melanoma; 181 µM and 32.2 µM in the assay with NCI-H460 lung. Moreover, the TGI in the assay on NCI-H522 lung was over 295 µM; in the assay with U251 CNS it was over 450 µM.
On to `COc1cc2c(cc1OC)[C@@H]1[C@H](C2=O)c2ccc([N+](=O)[O-])cc2C(=O)N1CCCBr`, for which the GI50 with EKVX NSCLC is 1.78 µM; with HCC-2998 colon it was 2.66 µM; in the assay with HS 578T breast it was 5.45 µM; with LOX IMVI melanoma, 0.2 µM; in the assay on MALME-3M melanoma, 0.367 µM; with NCI-H522 lung it was 0.574 µM. Moreover, the GI50 with U251 CNS is 0.134 µM. The TGI was over 100 µM with EKVX NSCLC; over 100 µM in the assay with HCC-2998 colon; 50.6 µM in the assay on HS 578T breast; 0.81 µM in the assay with LOX IMVI melanoma; 3.09 µM in the assay on MALME-3M melanoma; 29.4 µM in the assay with NCI-H522 lung. Moreover, the TGI in the assay with OVCAR-3 ovarian was 0.748 µM; in the assay on U251 CNS it was 1.39 µM.
For the compound `COc1ccc(-c2ccc(/C=N/n3cnn(CN4CCN(C)CC4)c3=S)o2)c([N+](=O)[O-])c1`, the GI50 is 52.8 µM in the assay with COLO 205 colon; 34.8 µM in the assay with EKVX NSCLC; 22.5 µM in the assay with HS 578T breast; 23.3 µM with LOX IMVI melanoma; 36.9 µM in the assay with MALME-3M melanoma; 35.2 µM in the assay with NCI-H460 lung. Moreover, the figures for the GI50 in the assay with NCI-H522 lung, with OVCAR-3 ovarian and with U251 CNS were 45 µM, 26.7 µM and 23.5 µM, respectively. For the same compound, the TGI with COLO 205 colon was over 100 µM; in the assay with EKVX NSCLC it was over 100 µM; with HS 578T breast it was 75.4 µM; in the assay on LOX IMVI melanoma it was 66.8 µM; in the assay with MALME-3M melanoma, over 100 µM; in the assay on NCI-H460 lung it was over 100 µM. In addition, the values for the TGI with NCI-H522 lung, in the assay on OVCAR-3 ovarian and in the assay with U251 CNS were over 100 µM, 66.9 µM and 65.7 µM, respectively.
`COc1ccc(-c2cc(-c3ccco3)c(C#N)c(=O)n2C2OC(OC(=O)c3ccccc3)C(OC(=O)c3ccccc3)C2OC(=O)c2ccccc2)cc1` (centres undefined): the TGI with COLO 205 colon, with EKVX NSCLC, in the assay with HCC-2998 colon, with LOX IMVI melanoma, in the assay with MALME-3M melanoma and in the assay on NCI-H460 lung was over 100 µM each time. The TGI in the assay with NCI-H522 lung, in the assay on OVCAR-3 ovarian and in the assay with U251 CNS was over 100 µM each time.
Regarding `CC1=NN(C(=O)CC(=O)Nc2ccccc2)C(=O)C1N=Nc1ccc(S(N)(=O)=O)cc1` (centres undefined), the TGI with COLO 205 colon, with EKVX NSCLC, with HCC-2998 colon, in the assay with LOX IMVI melanoma, with MALME-3M melanoma and with NCI-H460 lung was over 100 µM each time. Besides, the TGI in the assay with NCI-H522 lung, with OVCAR-3 ovarian and with U251 CNS was over 100 µM each time.
Turning to `Nc1ccc(Cl)cc1.Nc1ccc(Cl)cc1.Nc1ccc(Cl)cc1.O=C([O-])C(=O)[O-].O=C([O-])C(=O)[O-].[H+].[Ru+5]`, the GI50 in the assay with COLO 205 colon was 0.0362 µM; in the assay with EKVX NSCLC, 8.15 µM; in the assay with HCC-2998 colon, 0.439 µM; in the assay with LOX IMVI melanoma it was over 100 µM; in the assay on NCI-H460 lung it was 1.05 µM; in the assay on OVCAR-3 ovarian, 1.1 µM. Moreover, the GI50 with U251 CNS is 0.938 µM. For the same compound, the TGI in the assay on COLO 205 colon is 0.169 µM; in the assay with EKVX NSCLC it was over 100 µM; in the assay with LOX IMVI melanoma it was over 100 µM; in the assay on MALME-3M melanoma, over 100 µM; in the assay on NCI-H460 lung, over 100 µM; in the assay with NCI-H522 lung, over 100 µM. For the same compound, the TGI with OVCAR-3 ovarian and in the assay on U251 CNS was over 100 µM each time.

These data come from PubChem BioAssay (NCI).
